Series [1] has as its system HLM. In words: Hepatic microsome stability assay, HLM. In kind it is in vitro ADME, human. The note with it: predicted hepatic clearance. Here is the method:
(§1) A hepatic microsome stability assay was conducted to investigate the metabolic disposition of ammoxetine. In this assay, 100 μL of ammoxetine (2.5 μmol/L) was incubated at 37°C with 100 μL of liver microsomes (RLM, DLM, MLM, or HLM) formulated in a 5 mmol/L dipotassium hydrogen phosphate (K2HPO4) buffer at pH 7.4. The concentration of microsomes was 0.5 g/L. To initiate the incubations, 50 μL of NADPH solution preincubated at 37°C was added. […] Parallel triplicate samples were prepared for each time point, including 0, 2, 5, 10, 15, 30, 60, 90, and 120 min. To stop the reactions at each time point, 250 μL of ice-cold precipitating agent (acetonitrile/methanol, 1:1, v/v) containing 500 ng/mL of L-phencynonate (IS) was added to the incubation mixture. The samples were vortexed for 2 min at 4°C and then centrifuged at 13,800×g for 10 min. The supernatants were analyzed using an LC-MS-MS approach. […]
(§2) In Formula 3, t1/2 (min) represents the half-life of ammoxetine in liver microsomes. It is calculated by dividing −0.693 by the resulting slope (k e) obtained from a natural logarithm plot of the remaining concentration of ammoxetine against incubation time. […]

A short description of series [2]: Hepatic microsome stability assay, HLM. The class given is in vitro ADME, human. The note with it: human, liver microsomes, pH 7.4; 1 μmol/L, 0.2 g/L microsomes, NADPH. The protocol: as §1, §2
The test system of series [3] is MDCK-MDR1 cells. In words: Bidirectional permeability measurements in MDCK-MDR1 monolayers. The class given is in vitro ADME, canine. The note with it: from ER and verapamil effect. Here is the method: (§3) MDCK-MDR1 cells at passage 17 were cultured in DMEM supplemented with 10% FBS, 1% glutamine, 100 U/mL penicillin/streptomycin, 1% NEAA, and 1 mmol/L sodium pyruvate. The cells were incubated overnight at 37°C with 5% CO2 and a relative humidity of 90%. Once the cells reached approximately 80% confluence, they were treated with a 0.25% trypsin/EDTA solution to dissociate the cells. Subsequently, the cells were seeded at a density of 5 × 10^5 cells/cm^2 in Millicell-96 well plates (Millipore, Burlington, USA). Prior to conducting the experiments, the integrity of the cell monolayer was confirmed by measuring transepithelial electrical resistance (TEER) using a Millicell ERS® meter (Millipore, Burlington, USA). A TEER value greater than 400 Ω cm^2 was required to ensure the formation and preservation of tight junctions.
(§4) Cell monolayers were preincubated with HBSS for 15 min at 37°C. To measure the A→B (apical side to basolateral side of monolayer) transporter, 400 μL of ammoxetine solution was added to the A-side (donor chamber), and 1,200 μL of HBSS solution was added to the B-side (receiver chamber). The B→A transporter was evaluated by adding 1,200 μL of ammoxetine solution to the B-side (donor chamber) and 400 μL of HBSS solution to the A-side (receiver chamber). At 0 h, 50 μL of the solution was taken from the donor chamber, and aliquots of 50 μL were taken from the receiver chamber at 15, 30, 45, 60, 90, and 120-min time intervals. The collected aliquots were immediately replaced with equal volumes of fresh blank HBSS. Ammoxetine transport was studied at three concentrations: 0.2, 1, and 5 μg/mL, with each concentration evaluated in triplicate. […] Ammoxetine samples collected from the receiver chambers at different time points were mixed with 150 μL of acetonitrile/methanol (1:1, v/v) solution containing 50 ng/mL L-phencynonate (IS). The mixtures were then vortexed for 1 min and centrifuged for 10 min at 13,800×g. The supernatants were analyzed using an LC-MS-MS method.
(§5) The apparent permeability coefficient ( Papp , cm/s) values for ammoxetine were determined using Equation 1: Papp=dQ/dt/A×C0 (1)
(§6) Here, dQ/dt represents the amount of drug transported to the receiver chamber within a specific time period, A is the surface area of the cell monolayer (=0.33 cm^2), and C0 is the initial concentration of ammoxetine.
(§7) In general, the involvement of a P-gp-mediated efflux mechanism was indicated if the efflux ratio ( ER ) value exceeded 1.5 ([Langthaler et al., 2024]). […]

In series [4] the test system is P-gp. The series is described as above. The class given is in vitro ADME, canine. The following applies: dog, MDCK-MDR1, with verapamil 100 μmol/L, verapamil 100 μmol/L. Here is the method:
as §3, §4, §5, §6, §7

In series [5] the test system is P-gp (MDR1). Described as above. In kind it is in vitro ADME, canine. The note with it: dog, MDCK-MDR1, read-out: ER [Papp(B→A)⁄Papp(A→B)]. Here is the method:
as §3, §4, §5, §6, §7

A short description of series [6]: PPB assay by ultrafiltration, dog plasma. The class given is in vitro ADME, beagle dogs. The following applies: beagle. Here is the method: The PPB of ammoxetine was determined using the ultrafiltration method. Triplicate samples of rat, dog, or human plasma were spiked with ammoxetine at three final concentrations (50, 150, and 450 ng/mL). The spiked plasma samples were then incubated in a 37°C air-bath shaker for 1 h until equilibrium was reached. After incubation, 400 μL of the plasma samples were transferred to pre-saturated ultrafiltration devices. These devices were subsequently centrifuged at 13,800×g and 20°C for 20 min to separate the unbound ammoxetine. 100 μL of the test samples were taken and mixed with 100 μL of the IS, L-phencynonate (50 ng/mL), and 300 μL of methanol. Following centrifugation at 13,800×g for 10 min, the supernatants were used to determine the total and free concentrations of ammoxetine in the plasma (C t , C f ) using an LC-MS-MS method. The PPB rate (%) of ammoxetine was calculated by dividing (C t −C f ) by C t .

Structures are written as SMILES.

As for `CNCC[C@H](Oc1cccc2c1OCO2)c1cccs1` [ammoxetine], in series [1], the CL h is 9.05 ± 0.13 mL/min/kg. The molecule further registered a half-life at 1 μmol/L in series [2] of 4.16 ± 0.101 h. Moreover, the P-gp substrate status result in series [3] was “likely a substrate of P-gp”. The same molecule yielded an apical-to-basolateral permeability (Papp A→B) at 120 min, 0.2 μg/mL in series [4] (0.2 μg/mL) of 27.2 ± 6.43 ×10⁻⁶ cm/s. In addition, the Papp A→B at 120 min, 1 μg/mL in series [4] (1 μg/mL) was 28.8 ± 1.89 ×10⁻⁶ cm/s. Further, the Papp A→B at 120 min, 5 μg/mL in series [4] (5 μg/mL) was 29.9 ± 3.29 ×10⁻⁶ cm/s. The efflux ratio at 120 min, 0.2 μg/mL in series [5] (0.2 μg/mL) is 1.67. In addition, the efflux ratio at 120 min, 1 μg/mL in series [5] (1 μg/mL) stood at 1.74. Further, the efflux ratio at 120 min, 5 μg/mL in series [5] (5 μg/mL) turned out to be 1.9. Further, the fraction unbound at 1 h, 50 ng/mL in series [6] (50 ng/mL, read-out: Percentage of ammoxetine-protein binding rate (%) (converted)) is 0.464. In addition, the fraction unbound at 1 h, 150 ng/mL in series [6] (150 ng/mL, read-out: Percentage of ammoxetine-protein binding rate (%) (converted)) is 0.468. For the same molecule, the fraction unbound at 1 h, 450 ng/mL in series [6] (450 ng/mL, read-out: Percentage of ammoxetine-protein binding rate (%) (converted)) was 0.423. In addition, in series [6] (approximate range over 50-450 ng/mL, read-out: PPB rate), the fraction unbound at 1 h lay in the range of 0.4 to 0.5.

These data come from publication PMC11579541, “In vitro, in vivo, and in silico approaches for evaluating the preclinical DMPK profiles of ammoxetine, a novel chiral serotonin and norepinephrine reuptake inhibitor” (Frontiers in Pharmacology, 2024).
